The results in this text go back to patent publication US20220257722A1, “COMPOSITIONS AND METHODS OF TREATING AND PREVENTING SYSTEMIC COMPLICATIONS OF ACUTE ILLNESS” (United States Government As Represented By The Department …, priority 2019, published 2022).

One experiment deals with rat small intestine. Nature of the experiment: In vivo small intestinal perfusion: FITC-LPS transport into portal vein and mesenteric lymph during OA/TCA exposure. The settings on record: for TDG-related augmentation of FITC-LPS transport into the lymph: L-NAME 0.1 mM perfused or PG97-269 0.3 mg/kg iv before TDG; for inhibitory effect of TDG on FITC-LPS transport into the PV: L-NAME 0.1 mM perfused or PG97-269 0.3 mg/kg iv before TDG 50 μg/kg iv; for AUC0-90 of lymph FITC-LPS compared with the +TDG group / TDG-induced reduction of AUC0-90 PV FITC-LPS / lymph output in TDG-treated rats: L-NAME or PG97-269 before TDG; for AUC0-90 of PV FITC-LPS / AUC0-90 of lymph FITC-LPS: OA/TCA-augmented, 0-90 min; for OA/TCA-induced FITC-LPS transport into the PV: intraduodenal FITC-LPS 50 μg/ml + OA 30 mM/TCA 10 mM, anesthetized rats; for FITC-LPS transport into the lymph: intraduodenal FITC-LPS + OA/TCA. As to the method: In vivo small intestinal perfusion. Intraduodenal perfusions combined with PV and mesenteric lymph cannulation were carried out (1, 48). Under isoflurane anesthesia (2%), the animal was placed supine on a recirculating heating block system (Summit Medical Systems, Bend, Oreg., USA) in order to maintain body temperature at 36-37° C. Prewarmed saline was infused via the right femoral vein at 1.08 ml/h using a Harvard infusion pump (Harvard Apparatus, Holliston, Mass., USA). The abdomen was incised, and the PV was cannulated with a polyethylene (PE)-50 tube attached with 23G needle and fixed by methylacrylate adhesive at the insertion site. The tube was filled with heparinized saline enabling repeated blood sampling. PV samples (0.2 ml each) were collected every 15 min, followed by 0.2 ml flushes with heparinized saline. […] The lymph solution was continuously collected into a 1.5-ml tube every 15 min. A polyethylene tube (diameter 5 mm) filled with PBS was inserted through the forestomach and tied at 0.5 cm caudal from the pyloric ring. After bolus perfusion of 2 ml PBS into the duodenum from the tube, followed by stabilization for ˜30 min, the time was set as t=0 min. FITC-LPS (50 μg/ml) in 2-ml PBS with or without OA (30 mM) and TCA (10 mM) was bolus perfused at t=0 min. In order to maintain lymph flow, 2-ml PBS was perfused every 30 min. PV and lymph samples were collected every 15 min for 90 min. Blood samples were collected in a 0.5-ml tube containing 1 μl each of EDTA (0.5 M), and immediately centrifuged at 5,000 × g for 5 min, after which the plasma was stored at −80° C. until use. The lymph solution was weighed to measure its volume and centrifuged, with the supernatant stored at −80° C. until use. At 90 min, after collection of PV and lymph samples, arterial blood was taken from abdominal aorta for a reference sample, followed by euthanasia by thoracotomy.
The appearance of FITC-LPS into the PV plasma and lymph was assessed by fluorescence measurement using Synergy-2. Fluorescence intensity in the t=0 sample as background was subtracted from the fluorescence values measured in other time point samples. For lymph samples, the FITC-LPS concentration was multiplied by the lymph output in order to calculate total FITC-LPS appearance. FITC-LPS appearance was expressed as PV FITC-LPS content (ng/ml) or FITC-LPS transport into lymph (ng/15 min). Furthermore, total FITC-LPS transport into the PV and lymph was assessed by calculating the area under the curve (AUC) during 0-90 min of FITC-LPS appearance (AUC0-90) using the trapezoidal rule and expressed as AUC0-90 of PV FITC-LPS (μg·min/ml) and AUC0-90 of lymph FITC-LPS (μg).
Intestinal perfusion study: drug treatment. The lipid raft inhibitor MβCD (1 mM), the CD36 inhibitor SSO (1 mM), and PL81 (3%) were added to the initial perfusion of 2-ml PBS at t=−30 min, followed by their addition to the luminal FITC-LPS/OA/TCA solution at t=0 min.
Effect of TDG on intestinal LPS transport. The stable, DPP4-resistant analog of GLP-2, TDG (13) was used to examine the acute effect of GLP-2 on LPS transport into PV and mesenteric lymph in vivo. TDG (50 μg/kg) was bolus injected iv 15 min before the luminal FITC-LPS/OA/TCA perfusion (at t=−15 min). L-NAME was added to the first perfusion of 2 ml PBS (at t=−30 min). PG97-269 (0.3 mg/kg) was bolus injected iv 20 min before the luminal FITC-LPS/OA/TCA perfusion (at t=−20 min).

The subject of another experiment is rat jejunal mucosa. Nature of the experiment: LPS mucosal-to-serosal transport in rat jejunal mucosa read by TLR4 reporter cell assay. Format: cell-based. The settings on record: same samples as FITC measurement; SSO 0.1 mM or MβCD 1 mM. As for the experimental part: TLR-4 reporter cell assay. Since the LAL test may overestimate LPS levels due to nonspecific detection of […] (66), and FITC-LPS method measures LPS fluorescence without regard to the functional activity of LPS, experiments were carried out to determine whether the samples contained intact, functional LPS that is a preferential TLR-4 ligand. In order to confirm that intact LPS was measured in the samples used for measurements in the Ussing chamber study, a TLR4 reporter cell assay was used that consists of HEK293 cells co-transfected with murine TLR4, myeloid differentiation 2 and CD14 co-receptor genes and an inducible secreted embryonic alkaline phosphatase (SEAP) reporter gene with nuclear factor-kappa B (NF-kB) and activator protein 1 (AP-1) binding motifs (HEK-Blue mTLR-4, InvivoGen, San Diego, Calif.). Cells were harvested in a 96-well plate with standards and samples for 24 hr. The presence of LPS was detected as induced SEAP activity in the medium using HEK-Blue Detection (InvivoGen) by measuring absorbance at 655 nm with Synergy-2 24 hrs after the addition of standards and samples, according to the manufacturer's protocol. Ultrapure LPS from E. coli 055:B5 (LPS-B5 Ultrapure, InvivoGen) was used as standard at a range of 0.01-100 ng/ml.

As to “[Ac-His^1, D-Phe^2, Lys^15, Arg^16, Leu^27]-VIP(1-7)-GRF(8-27) (HFDAVFTNSYRKVLKRLSARKLLQDIL; HELM PEPTIDE1{[ac].H.[dF].D.A.V.F.T.N.S.Y.R.K.V.L.K.R.L.S.A.R.K.L.L.Q.D.I.L.[am]}$$$$V2.0; SMILES CC[C@H](C)[C@H](NC(=O)[C@H](CC(=O)O)NC(=O)[C@H](CCC(N)=O)NC(=O)[C@H](CC(C)C)NC(=O)[C@H](CC(C)C)NC(=O)[C@H](CCCCN)NC(=O)[C@H](CCCNC(=N)N)NC(=O)[C@H](C)NC(=O)[C@H](CO)NC(=O)[C@H](CC(C)C)NC(=O)[C@H](CCCNC(=N)N)NC(=O)[C@H](CCCCN)NC(=O)[C@H](CC(C)C)NC(=O)[C@@H](NC(=O)[C@H](CCCCN)NC(=O)[C@H](CCCNC(=N)N)NC(=O)[C@H](Cc1ccc(O)cc1)NC(=O)[C@H](CO)NC(=O)[C@H](CC(N)=O)NC(=O)[C@@H](NC(=O)[C@H](Cc1ccccc1)NC(=O)[C@@H](NC(=O)[C@H](C)NC(=O)[C@H](CC(=O)O)NC(=O)[C@@H](Cc1ccccc1)NC(=O)[C@H](Cc1c[nH]cn1)NC(C)=O)C(C)C)[C@@H](C)O)C(C)C)C(=O)N[C@@H](CC(C)C)C(N)=O) [PG97-269]”, in the experiment with rat small intestine, the “TDG-related augmentation of FITC-LPS transport into the lymph” value was “inhibited”, the “inhibitory effect of TDG on FITC-LPS transport into the PV” value is on record as “no effect”, the “AUC0-90 of lymph FITC-LPS compared with the +TDG group” value was “reduced” and the “TDG-induced reduction of AUC0-90 PV FITC-LPS” value is recorded as “no effect”. In addition, in the experiment with rat small intestine, the “lymph output in TDG-treated rats” value is “reduced”.
Consider `CC[C@H](C)[C@H](NC(=O)[C@H](Cc1ccccc1)NC(=O)[C@H](CC(=O)O)NC(=O)[C@H](CCCNC(=N)N)NC(=O)[C@H](C)NC(=O)[C@H](C)NC(=O)[C@H](CC(C)C)NC(=O)[C@H](CC(N)=O)NC(=O)[C@H](CC(=O)O)NC(=O)[C@H](CC(C)C)NC(=O)[C@@H](NC(=O)[C@@H](NC(=O)[C@H](CC(N)=O)NC(=O)[C@H](CCSC)NC(=O)[C@H](CCC(=O)O)NC(=O)[C@H](CC(=O)O)NC(=O)[C@H](CO)NC(=O)[C@H](Cc1ccccc1)NC(=O)[C@H](CO)NC(=O)CNC(=O)[C@H](CC(=O)O)NC(=O)CNC(=O)[C@@H](N)Cc1c[nH]cn1)[C@@H](C)O)[C@@H](C)CC)C(=O)N[C@@H](CC(N)=O)C(=O)N[C@@H](Cc1c[nH]c2ccccc12)C(=O)N[C@@H](CC(C)C)C(=O)N[C@H](C(=O)N[C@@H](CCC(N)=O)C(=O)N[C@H](C(=O)N[C@@H](CCCCN)C(=O)N[C@H](C(=O)N[C@H](C(=O)N[C@@H](CC(=O)O)C(=O)O)[C@@H](C)O)[C@@H](C)CC)[C@@H](C)O)[C@@H](C)CC` [TDG], for which, in the experiment with rat small intestine, the “AUC0-90 of PV FITC-LPS” value is reported as “reduced”, the “AUC0-90 of lymph FITC-LPS” value was “no significant effect”, the “OA/TCA-induced FITC-LPS transport into the PV” value was “abolished” and the “FITC-LPS transport into the lymph” value is reported as “rapidly increased”. The lymphatic output entry in the experiment with rat small intestine (t=0-30 min, TDG 50 μg/kg iv at t=-15 min vs non-pretreated controls) is “rapid increase”.
Consider `CCCCCCCC/C=C\CCCCCCCC(=O)ON1C(=O)CC(S(=O)(=O)O)C1=O` (stereo not shown) [SSO, sulfosuccinimidyl oleate], for which, in the experiment on rat small intestine, the “AUC0-90 of PV FITC-LPS” value was “failed to affect”, the “AUC0-90 of lymph FITC-LPS” value is “no effect”, the “OA/TCA-induced FITC-LPS transport into the PV” value is “inhibited” and the “FITC-LPS transport into the lymph” value is reported as “no effect”. Moreover, the “LPS m-to-s transport during OA/TCA exposure by TLR4 reporter cell assay” value with rat jejunal mucosa is listed as “abolished”.
Turning to methyl-β-cyclodextrin [MβCD], in the experiment with rat small intestine, the “AUC0-90 of PV FITC-LPS” value is “abolished”, the “AUC0-90 of lymph FITC-LPS” value was “no effect”, the “OA/TCA-induced FITC-LPS transport into the PV” value is “abolished” and the “FITC-LPS transport into the lymph” value is reported as “no effect”. For the same compound, the “LPS m-to-s transport during OA/TCA exposure by TLR4 reporter cell assay” value with rat jejunal mucosa is “abolished”.
Turning to `COC(=O)[C@@H](N)CCCNC(=N)N[N+](=O)[O-]` [L-NAME, Nω-nitro-L-arginine methyl ester], in the experiment on rat small intestine, the “TDG-related augmentation of FITC-LPS transport into the lymph” value is “inhibited”, the “inhibitory effect of TDG on FITC-LPS transport into the PV” value is recorded as “reduced”, the “AUC0-90 of lymph FITC-LPS compared with the +TDG group” value is given as “reduced” and the “TDG-induced reduction of AUC0-90 PV FITC-LPS” value is listed as “reversed”. Besides, the “lymph output in TDG-treated rats” value in the experiment with rat small intestine is “reduced”.
